# Reference: patent US9732088B2, “C2-carbocyclic iminothiazine dioxides as BACE inhibitors, compositions, and their use” (Merck Sharp & Dohme Corp., priority 2014, dated 2017)
# Legend:
# [1] = target: purified human Cathepsin-D (Homo sapiens (Human), UniProt P07339); experiment: Cathepsin-D Assay (time-resolved FRET); format: biochemical; conditions: Assay 4; Ki calculated from IC50 by Cheng-Prusoff;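 further: Europium-labelled peptide substrate with QSY7 quencher, cleavage read as 620 nm fluorescence after 30 min preincubation then 30 min reaction at 30 °C, pH 5.0, inhibition lowers signal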
# Procedure: Assay 4: Cathepsin-D Assay
# This substrate contains an C-terminal QSY7 moiety that serves as a quencher of the N-terminal Europium fluorophore (620 nm Em). In the absence of enzyme activity, 620 nm fluorescence is low in the assay and increased linearly over 1 hour in the presence of uninhibited Cathepsin-D enzyme. Inhibition of Cathespin D cleavage of the Eu-Aspartyl Protease-QSY7 substrate by inhibitors is manifested as a suppression of 620 nm fluorescence.
# Varying concentrations of inhibitors in a volume of 100 nl are preincubated with purified human Cathepsin-D (0.1 nM in 10 μl) for 30 minutes at 30° C. in reaction buffer containing 100 mM Na-Acetate pH 5.0, and 0.02% Brij-35. Reactions are initiated by addition of 10 μl of 100 nM Eu-Aspartyl Protease-QSY7 substrate (50 nM final) to give a final reaction volume of 20 μl in a 384 well Nunc HTRF plate. The reactions are incubated at 30° C. for 30 minutes. The 620 nm fluorescence is then read on a Envision Multilabel plate reader (Perkin-Elmer) using a 200 microsecond delay followed by a 400 microsecond acquisition time window. Inhibitor IC50 values are derived from non-linear regression analysis of concentration response curves.
# HepG2 cells = experiment: In Vitro Phospholipidosis Assay; format: cell-based; conditions: 20 μM, 24 hours, normalized to DMSO
# Excerpt: [formula] Assay 7: In Vitro Phospholipidosis Assay
# Drug-induced phospholipidosis (PL) is characterized by intracellular accumulation of phospholipids with lamellular bodies, and may result from impaired phospholipid metabolism in the lysosome (Anderson et al., 2006, FEBS Letter, 580, 5533-5540), and many compounds known to cause drug-induced PL are also associated with adverse drug reactions. Using a method described in the literature (Bhandari et al., 2008, Assay and Drug Dev. Tech., 6(3), 407-419), an in vitro cellular assay can provide data that can determine the PL potential of test compounds. In this assay, compounds that lower values for mean inclusion count of a fluorescent phospholipid (described below) versus control are associated with reduced potential for PL.
# HepG2 cells were dispensed into 96-well collagen I coated plates at an initial density of 2.0×10^5 cells in 200 μL complete culturing medium (MEM Media w/Earle's Balanced Salt Solution supplemented with 10 IU penicillin, 10 μg/mL streptomycin, and 10% heat inactivated fetal bovine serum). Cells were incubated overnight at 37° C. with 5% CO2, 89% humidity prior to treatment.
# A solution of fluorescently labeled phospholipid N-(7-nitrobenz-2-oxa-1,3-diazol-4-yl)-1,2-dihexadecanoyl-sn-glycero-3-phosphoethanolamine (NBD-PE) was prepared at a concentration of 10 mM in absolute ethanol. Dissolution of the NBD-PE was facilitated by sonication in a room temperature water bath for 30 minutes. NBD-PE medium was prepared by diluting NBD-PE stock to a final concentration of 50 μM in complete culturing medium, filtering (pore size, 0.22 μm) prior to use.
# Compound treatment stocks were prepared in dimethyl sulfoxide at 500× final concentrations. Working treatment solutions were prepared by diluting compound stocks into NBD-PE medium with DMSO serving as the vehicle control. Treatment concentration was 20 μM. Amiodarone ((2-{4-[(2-butyl-1-benzofuran-3-yl)carbonyl]-2,6-diiodophenoxy}ethyl)diethylamine) served as the assay positive control at the same concentration. All treatments were tested in triplicate for 24 hours.
# Following treatment, cultures were rinsed once with Hank's Balanced Salt Solution (HBSS) containing no phenol red. Cultures were then incubated for 30 minutes at 37° C. with […] Hoechst 33342 nuclear stain and […] cell tracker orange cytoplasm stain. After incubation, cells were rinsed once with HBSS and then fixed in 2% formalin solution.
# Cultures were imaged using the IN Cell Analyzer 2000 imaging system. One set of images were acquired with the 4× objective using the appropriate Hoechst filter settings to acquire a full-well cell count. Another set of images were acquired to evaluate treatment-related phospholipidosis with the 20× objective.
# Images were analyzed using custom algorithms created in the IN Cell Workstation software using NBD-PE inclusion count in the cell cytoplasm as and endpoint associated with phospholipidosis. Data were expressed as fold over control, normalized to the DMSO vehicle control response.
# [2] = target: purified human autoBACE-2 (Homo sapiens (Human), UniProt Q9Y5Z0); experiment: BACE-2 Assay (BACE-HTRF assay); format: biochemical; conditions: Assay 2; Ki calculated from IC50 by Cheng-Prusoff; read-out: BACE2 Ki
# Procedure: The compounds of the invention were determined to be potent inhibitors of BACE-2 using the following assay. Inhibitor IC50s at purified human autoBACE-2 are determined in a time-resolved endpoint proteolysis assay that measures hydrolysis of the QSY7-[…]-Eu-amide FRET peptide substrate (BACE-HTRF assay). BACE-mediated hydrolysis of this peptide results in an increase in relative fluorescence (RFU) at 620 nm after excitation with 320 nm light Inhibitor compounds, prepared at 3× the desired final concentration in 1×BACE assay buffer (20 mM sodium acetate pH 5.0, 10% glycerol, 0.1% Brij-35) supplemented with 7.5% DMSO are pre-incubated with an equal volume of autoBACE-2 enzyme diluted in 1×BACE assay buffer (final enzyme concentration 1 nM) in black 384-well NUNC plates for 30 minutes at 30° C. […] DMSO is present at […] final concentration in the assay. Following laser excitation of sample wells at 320 nm, the fluorescence signal at 620 nm is collected for 400 ms following a 50 μs delay on a RUBYstar HTRF plate reader (BMG Labtechnologies). Raw RFU data is normalized to maximum (1.0 nM BACE/DMSO) and minimum (no enzyme/DMSO) RFU values. IC50 values are determined by nonlinear regression analysis (sigmoidal dose response, variable slope) of percent inhibition data with minimum and maximum values set to 0 and 100 percent respectively. Similar IC50s are obtained when using raw RFU data. The Ki values are calculated from the IC50 using the Cheng-Prusoff equation.
# BACE-1 = BACE-1 (Homo sapiens (Human), UniProt P56817); experiment: BACE-1 Cellular Assay (Aβ in HEK293-APPswe/lon cells); format: cell-based; conditions: 4 hours
# Method in brief: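 HEK293 cells stably expressing human APP with Swedish and London FAD mutations, cultured at 37° C., 5% CO2. Aβ40 or Aβ42 in conditioned media measured by electrochemiluminescent ELISA (WO2 capture; G2-10 or G2-11 detection). IC50 from variable-slope sigmoidal fit of signal versus compound concentration.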
# [3] = target: soluble human BACE-1 catalytic domain (Homo sapiens (Human), UniProt P56817); experiment: BACE-1 Ki Assay (BACE-1 HTRF FRET Assay); format: biochemical; conditions: Assay 1; Ki calculated from IC50 by Cheng-Prusoff
# Procedure: Assay 1: BACE-1 Ki Assay (BACE-1 HTRF FRET Assay)
# The compounds of the invention were determined to be potent inhibitors of BACE-1 using the following assay.
# The following reagents were used in this assay. Na^+-Acetate pH 5.0; 1% Brij-35; Glycerol; Dimethyl Sulfoxide (DMSO); Recombinant human soluble BACE-1 catalytic domain (>95% pure); APP Swedish mutant peptide substrate (QSY7-APP^swe-Eu): QSY7-[…]-Europium-amide.
# A homogeneous time-resolved FRET assay can be used to determine IC50 values for inhibitors of the soluble human BACE-1 catalytic domain. This assay monitors the increase of 620 nm fluorescence that resulted from BACE-1 cleavage of an APPswedish APP^swe mutant peptide FRET substrate (QSY7-[…]-Europium-amide). This substrate contains an N-terminal QSY7 moiety that serves as a quencher of the C-terminal Europium fluorophore (620 nm Em). In the absence of enzyme activity, 620 nm fluorescence is low in the assay and increased linearly over 3 hours in the presence of uninhibited BACE-1 enzyme. Inhibition of BACE-1 cleavage of the QSY7-APP^swe-Eu substrate by inhibitors is manifested as a suppression of 620 nm fluorescence.
# Varying concentrations of inhibitors at 3× the final desired concentration in a volume of […] are preincubated with purified human BACE-1 catalytic domain (3 nM in 10 μl) for 30 minutes at 30° C. in reaction buffer containing 20 mM Na-Acetate pH 5.0, 10% glycerol, 0.1% Brij-35 and 7.5% DSMO. Reactions are initiated by addition of 10 μl of 600 nM QSY7-APP^swe-Eu substrate (200 nM final) to give a final reaction volume of 30 μl in a 384 well Nunc HTRF plate. The reactions are incubated at 30° C. for 1.5 hours. The 620 nm fluorescence is then read on a Rubystar HTRF plate reader (BMG Labtechnologies) using a […] delay followed by a 400 millisecond acquisition time window. Inhibitor IC50 values are derived from non-linear regression analysis of concentration response curves. Ki values are then calculated from IC50 values using the Cheng-Prusoff equation using a previously determined […] of 8 μM for the QSY7-APP^swe-Eu substrate at BACE-1. The example compounds of the invention were measured in this assay.
# BACE-1, sequence (P56817 46-501): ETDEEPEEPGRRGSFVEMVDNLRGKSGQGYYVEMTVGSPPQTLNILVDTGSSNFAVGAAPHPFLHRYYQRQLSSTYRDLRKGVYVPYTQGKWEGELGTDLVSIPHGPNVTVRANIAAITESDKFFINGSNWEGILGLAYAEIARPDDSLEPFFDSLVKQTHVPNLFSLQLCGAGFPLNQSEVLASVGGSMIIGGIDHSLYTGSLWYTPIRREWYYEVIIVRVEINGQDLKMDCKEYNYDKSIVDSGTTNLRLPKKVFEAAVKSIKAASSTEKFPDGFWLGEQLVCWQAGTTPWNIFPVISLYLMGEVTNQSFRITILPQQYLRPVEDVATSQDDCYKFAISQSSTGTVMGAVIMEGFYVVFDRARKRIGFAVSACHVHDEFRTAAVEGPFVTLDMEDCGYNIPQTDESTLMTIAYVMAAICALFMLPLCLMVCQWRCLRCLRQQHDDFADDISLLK
# soluble human BACE-1 catalytic domain, sequence (P56817 75-416): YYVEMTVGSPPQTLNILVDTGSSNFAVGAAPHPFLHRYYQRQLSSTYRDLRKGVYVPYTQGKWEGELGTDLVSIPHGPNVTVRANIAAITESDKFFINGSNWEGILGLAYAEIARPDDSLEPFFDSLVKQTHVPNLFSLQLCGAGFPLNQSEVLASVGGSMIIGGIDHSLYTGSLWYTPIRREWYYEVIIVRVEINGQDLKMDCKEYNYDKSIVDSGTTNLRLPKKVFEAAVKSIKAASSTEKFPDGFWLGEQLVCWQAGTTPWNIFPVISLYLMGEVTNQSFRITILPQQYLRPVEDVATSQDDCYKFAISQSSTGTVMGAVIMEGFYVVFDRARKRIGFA
# purified human Cathepsin-D, sequence (P07339 65-412): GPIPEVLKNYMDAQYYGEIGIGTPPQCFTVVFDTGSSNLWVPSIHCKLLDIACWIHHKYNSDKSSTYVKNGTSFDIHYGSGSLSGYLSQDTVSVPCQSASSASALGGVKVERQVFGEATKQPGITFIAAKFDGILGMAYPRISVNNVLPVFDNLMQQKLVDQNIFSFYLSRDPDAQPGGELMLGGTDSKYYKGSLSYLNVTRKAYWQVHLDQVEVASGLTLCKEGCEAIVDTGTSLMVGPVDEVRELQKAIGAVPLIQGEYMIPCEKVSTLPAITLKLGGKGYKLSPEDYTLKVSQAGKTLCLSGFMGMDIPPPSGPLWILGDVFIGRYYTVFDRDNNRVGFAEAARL
# purified human autoBACE-2, sequence (Q9Y5Z0 63-466): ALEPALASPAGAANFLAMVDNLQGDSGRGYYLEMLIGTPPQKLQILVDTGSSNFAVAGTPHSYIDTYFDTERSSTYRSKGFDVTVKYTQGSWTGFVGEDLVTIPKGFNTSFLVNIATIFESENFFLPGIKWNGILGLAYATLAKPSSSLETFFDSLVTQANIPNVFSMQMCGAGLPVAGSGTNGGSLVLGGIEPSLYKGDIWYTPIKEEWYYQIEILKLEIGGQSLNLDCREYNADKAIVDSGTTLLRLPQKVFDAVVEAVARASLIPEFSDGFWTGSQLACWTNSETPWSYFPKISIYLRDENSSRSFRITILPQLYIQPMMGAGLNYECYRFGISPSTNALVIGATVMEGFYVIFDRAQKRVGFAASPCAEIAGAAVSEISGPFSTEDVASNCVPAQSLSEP
smiles,measurement,setting,value
"COc1cnc2c(Nc3ccc(F)c([C@]4(C)CS(=O)(=O)[C@@](CF)(C5CC5)C(N)=N4)c3)nccc2c1 [Example 7, N-{3-[(3R,6S)-6-cyclopropyl-6-(fluoromethyl)-5-imino-3-methyl-1,1-dioxidothiomorpholin-3-yl]-4-fluorophenyl}-3-methoxy-1,7-naphthyridin-8 amine]",Ki,[1],1120 nM
same,In Vitro Phospholipidosis Assay: Mean NBD-PE Inclusion Count (Fold over control),HepG2 cells,1.9 Fold over control
same,Ki,[2],3.6 nM
same,IC50,BACE-1,132 nM
same,Ki,[3],7.1 nM
